Assay results from patent publication US11780845B2 (Relay Therapeutics, Inc., priority 2019, dated 2023).

Assays:
[1] = target: T1, FGFR2 (Homo sapiens (Human), UniProt P21802); assay: Biochemical FGFR2 Caliper assay
[2] = target: T1, FGFR2; assay: FGFR2 Biochemical Caliper Assay
Procedure: Compounds of the present invention were also tested in a FGFR2 Biochemical Caliper Assay. Compounds were prepared in 10 mM DMSO solution and serially diluted into 11 concentrations by 3-fold dilution. […] 5 uL of ATP solution (100 uM) was added to start the reaction and the plate was incubated for 90 minutes, then 70 uL of stopping buffer (0.5M EDTA) was added to terminate the reaction. Each well was analyzed using EZ reader.

T1 sequence (P21802 22-821): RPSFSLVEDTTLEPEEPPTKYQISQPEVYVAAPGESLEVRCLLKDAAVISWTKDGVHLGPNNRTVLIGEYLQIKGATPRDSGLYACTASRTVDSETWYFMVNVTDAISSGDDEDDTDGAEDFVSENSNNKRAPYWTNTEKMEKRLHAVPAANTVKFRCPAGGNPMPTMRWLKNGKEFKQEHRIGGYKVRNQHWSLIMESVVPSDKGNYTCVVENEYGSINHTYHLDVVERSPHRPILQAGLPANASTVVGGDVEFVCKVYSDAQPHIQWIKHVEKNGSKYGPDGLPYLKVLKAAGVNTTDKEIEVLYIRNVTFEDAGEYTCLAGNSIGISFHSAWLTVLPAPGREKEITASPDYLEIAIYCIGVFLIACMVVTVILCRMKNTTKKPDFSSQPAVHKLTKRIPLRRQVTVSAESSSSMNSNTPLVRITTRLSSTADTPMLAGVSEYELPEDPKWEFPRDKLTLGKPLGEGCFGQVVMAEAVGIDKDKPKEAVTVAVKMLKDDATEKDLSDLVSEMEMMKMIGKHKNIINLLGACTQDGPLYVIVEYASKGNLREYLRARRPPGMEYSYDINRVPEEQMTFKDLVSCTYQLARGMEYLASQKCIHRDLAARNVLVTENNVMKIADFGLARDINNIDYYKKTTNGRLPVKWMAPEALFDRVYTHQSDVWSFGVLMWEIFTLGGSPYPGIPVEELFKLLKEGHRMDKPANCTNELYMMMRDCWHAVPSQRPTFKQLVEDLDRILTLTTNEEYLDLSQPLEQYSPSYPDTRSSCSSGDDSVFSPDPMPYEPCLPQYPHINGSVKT

Compound	IC50 [1] [nM]	IC50 [2] [nM]
C=CC(=O)Nc1ccc(-c2c(C3=CC[C@H](C(=O)N4CCCC4)CC3)c3c(N)ncnc3n2C)c(C)c1 (single isomer, unassigned) [Example 1101]	< 100	–
C=C(C)C(=O)Nc1ccc(-c2c([C@H]3CC[C@@H](C(=O)N4CCCC4)CC3)c3c(N)ncnc3n2C)cc1 [Example 577]	–	1000 to 100000
C=CC(=O)N1CC(c2c(-c3ccc(Oc4ccccc4)cc3)c3c(N)ncnc3n2C)C1 [Example 604]	–	< 100
C=CC(=O)N[C@H]1C[C@H](n2cc(-c3c(-c4ccc(Oc5ccccc5)cc4)c4c(N)ncnc4n3C)cn2)C1 [Example 605]	–	< 100
C=CC(=O)N[C@H]1C[C@@H](n2cc(-c3c(-c4ccc(Oc5ccccc5)cc4)c4c(N)ncnc4n3C)cn2)C1 [Example 606]	–	< 100
C=CC(=O)N1CCC(n2cc(-c3c(-c4ccc(Cl)c(OC)c4)c4c(N)ncnc4n3C)cn2)CC1 [Example 609]	–	250 to 1000
C=CC(=O)N1CCC(n2cc(-c3c(-c4ccc(F)c(OC)c4)c4c(N)ncnc4n3C)cn2)CC1 [Example 610]	–	250 to 1000
C=CC(=O)N1CCC(n2cc(-c3c(-c4ccccc4OC)c4c(N)ncnc4n3C)cn2)CC1 [Example 611]	–	1000 to 100000
C=CC(=O)N1CCC(n2cc(-c3c(-c4ccc(Oc5ccccc5)c(OC)c4)c4c(N)ncnc4n3C)cn2)CC1 [Example 612]	–	100 to 250
C=CC(=O)N1CCC(n2cc(-c3c(-c4cc(OC)c(Cl)cc4Cl)c4c(N)ncnc4n3C)cn2)CC1 [Example 613]	–	1000 to 100000
C=CC(=O)N1CCC(n2cc(-c3c(-c4cc(OC)c(Cl)cc4F)c4c(N)ncnc4n3C)cn2)CC1 [Example 614]	–	1000 to 100000
C=CC(=O)N1CCC(n2cc(-c3c(-c4ccc(Oc5ccccc5)cc4Cl)c4c(N)ncnc4n3C)cn2)CC1 [Example 615]	–	< 100
C=CC(=O)N1CCC(n2cc(-c3c(-c4c(Cl)ccc5c4OCO5)c4c(N)ncnc4n3C)cn2)CC1 [Example 616]	–	1000 to 100000
C=CC(=O)N[C@H]1CC[C@@H](c2c(-c3ccc(Oc4cccc(C)n4)c(OC)c3)c3c(N)ncnc3n2C)CC1 [Example 624]	–	1000 to 100000
C=CC(=O)N[C@H]1CC[C@H](c2c(-c3ccc(Oc4cccc(C)n4)c(OC)c3)c3c(N)ncnc3n2C)CC1 [Example 625]	–	250 to 1000
C=CC(=O)N1CCC(N2CC(c3c(-c4ccc(Oc5cccc(C)n5)c(OC)c4)c4c(N)ncnc4n3C)C2)CC1 [Example 658]	–	1000 to 100000

Compound	IC50 [1] [nM]	IC50 [2] [nM]
C=CC(=O)N1CCC(N2CC(c3c(-c4ccc(Oc5cccc(C)n5)cc4)c4c(N)ncnc4n3C)C2)CC1 [Example 659]	–	1000 to 100000
C=CC(=O)N1CCC(c2c(-c3ccc(Oc4cccc(C)n4)c(OC)c3)c3c(N)ncnc3n2C)=CC1C (stereo not drawn) [Example 679]	–	< 100
C=CC(=O)Nc1ccc(-c2c(-c3ccc(Oc4nccc(C)n4)c(C)c3)c3c(N)ncnc3n2C)c(F)c1 [Example 1075]	< 100	–
CN(C)C/C=C/C(=O)Nc1cccc(-c2c(-c3ccc(C(=O)N4CCCC4)cc3)c3c(N)ncnc3n2C)c1 [Example 1099]	< 100	–
C#Cc1ncc(-c2c(-c3ccc(Oc4nccc(C)n4)cc3)c3c(C)ncnc3n2C)c(C)n1 [Example 1100]	100 to 250	–
C#Cc1cc(C)c(-c2c(-c3ccc(OC(F)(F)F)cc3)c3c(N)ncnc3n2C)cn1 [Example 1129]	< 100	–
C=C(C)C(=O)Nc1cnc(-c2c(-c3ccc(Oc4cccc(C)n4)c(F)c3)c3c(C)ncnc3n2C)c(C)c1 [Example 1139]	< 100	–
C#Cc1ncc(-c2[nH]c3ncnc(N)c3c2-c2ccc(Oc3nccc(C)n3)cc2)c(C)n1 [Example 1159]	250 to 1000	–
C#Cc1ccc(-c2c(-c3ccc(Oc4nccc(C)n4)c(F)c3)c3c(C)ncnc3n2C)c(C)n1 [Example 1174]	1000 to 100000	–
C#Cc1cnc(-c2c(-c3ccc(Oc4nccc(C)n4)cc3)c3c(N)ncnc3n2C)c(C)n1 [Example 1176]	1000 to 100000	–
C#Cc1ncc(-c2c(-c3ccc(Oc4nccc(C)n4)cc3)c3c(N)ncnc3n2C)cc1OC [Example 1178]	1000 to 100000	–
C=Cc1cc(-c2c(-c3ccccc3)c3c(N)ncnc3n2C)ccn1 [Example 1195]	100 to 250	–
C#Cc1cc(C)c(-c2c(-c3ccc(Oc4nccc(C)n4)cc3F)c3c(N)ncnc3n2C)cn1 [Example 1196]	250 to 1000	–
C=CC(=O)Nc1ccc(-c2c(-c3ccc(Oc4ccccc4)cc3)c3c(C)ncnc3n2C(C)C)cc1 [Example 1218]	1000 to 100000	–
C=CC(=O)Nc1ccc(-c2[nH]c3ncnc(C)c3c2-c2ccc(Oc3ccccc3)cc2)cc1 [Example 1254]	1000 to 100000	–

Next, values leading:

IC50 [1] [nM]	IC50 [2] [nM]	Compound
–	1000 to 100000	C=C(C)C(=O)Nc1ccc(-c2c([C@H]3CC[C@H](C(=O)N4CCCC4)CC3)c3c(N)ncnc3n2C)cc1 [Example 578]
–	1000 to 100000	C=C(C)C(=O)Nc1ccc(-c2c(C3=CC[C@H](C(=O)N4CC5CC5C4)CC3)c3c(N)ncnc3n2C)cc1 (stereo partly drawn) [Example 581]
–	100 to 250	Cn1c(-c2ccc(NC(=O)C3CO3)cc2)c(-c2ccc(C(=O)N3CCCC3)cc2)c2c(N)ncnc21 (stereo not drawn) [Example 586]
–	1000 to 100000	C=C(C)C(=O)Nc1ccc(-c2c(-c3ccc(C(=O)N4CCCC4)cc3Cl)c3c(N)ncnc3n2C)cc1 [Example 587]
–	1000 to 100000	C=C(C)C(=O)Nc1ccc(-c2c(-c3ccc(C(=O)N4CCCC4)cc3C(F)F)c3c(N)ncnc3n2C)cc1 [Example 588]
–	< 100	C=C(C)C(=O)Nc1ccc(-c2c(-c3ccc(C(=O)N4CC5CC4(C(F)F)C5)cc3)c3c(N)ncnc3n2C)cc1 [Example 595]
–	< 100	C=C(C)C(=O)Nc1ccc(-c2c(-c3ccc(C(=O)N4CCCC4)cn3)c3c(N)ncnc3n2C)cc1 [Example 596]
–	1000 to 100000	C=C(C)C(=O)Nc1ccc(-c2c(-c3ccc(C(=O)N4CCCC4)cc3C)c3c(N)ncnc3n2C)cc1 [Example 597]
–	100 to 250	C=C(C)C(=O)Nc1ccc(-c2c(-c3ccc4c(c3)COC4c3cccc(C)n3)c3c(N)ncnc3n2C)cc1 (stereo not drawn) [Example 599]
< 100	–	C=C(C)C(=O)Nc1cc(Cl)c(-c2c(-c3ccc(Oc4nccc(C)n4)cc3)c3c(N)ncnc3n2C)cc1F [Example 1076]
< 100	–	C=C(C)C(=O)Nc1ccc(-c2c(-c3ccc4nn(C)cc4c3)c3c(N)ncnc3n2C)cc1 [Example 1122]
250 to 1000	–	C=C(C)C(=O)Nc1ccc(-c2c(-c3ccc(-n4ccc(C)n4)nc3)c3c(N)ncnc3n2C)cc1 [Example 1146]
1000 to 100000	–	C=CC(=O)Nc1ccc(-c2c(-c3ccc4cc[nH]c4c3)c3c(N)ncnc3n2C)cc1 [Example 1147]
< 100	–	C=CC(=O)Nc1ccc(-c2c(-c3cc4ccccc4s3)c3c(N)ncnc3n2C)cc1 [Example 1149]
< 100	–	C=CC(=O)Nc1ccc(-c2c(-c3cnsc3)c3c(N)ncnc3n2C)cc1 [Example 1150]
1000 to 100000	–	C=C(C)C(=O)Nc1ccc(-c2c(C#Cc3cc(OC)cc(OC)c3)c3c(N)ncnc3n2C)cc1 [Example 1152]
1000 to 100000	–	C=C(C)C(=O)Nc1ccc(-c2c(-c3ccc(-c4ccn[nH]4)cc3)c3c(N)ncnc3n2C)cc1 [Example 1156]
1000 to 100000	–	Cn1c(-c2ccc(C#N)cc2)c(-c2ccccc2)c2c(N)ncnc21 [Example 1173]
1000 to 100000	–	C=C(C)C(=O)Nc1ccc(-c2c(C3=CCN(C(=O)OCc4ccccc4)CC3)c3c(N)ncnc3n2C)cc1 [Example 1190]

IC50 [1] [nM]	IC50 [2] [nM]	Compound
1000 to 100000	–	C=C(C)C(=O)Nc1ccc(-c2c(-c3ccc(-n4cc(C)cn4)cc3)c3c(N)ncnc3n2C)cc1 [Example 1191]
< 100	–	C#Cc1ccc(-c2c(-c3ccccc3)c3c(N)ncnc3n2C)cn1 [Example 1192]
250 to 1000	–	C=C(C)C(=O)Nc1ccc(-c2c(-c3cc4ccccc4s3)c3c(N)ncnc3n2C)cc1 [Example 1209]
1000 to 100000	–	C=C(C)C(=O)Nc1ccc(-c2c(C3=CCN(c4ccccc4)CC3)c3c(N)ncnc3n2C)cc1 [Example 1216]
< 100	–	C=CC(=O)Nc1ccc(-c2c(-c3ccc(Oc4cccc(C)n4)cc3)c3c(C)ncnc3n2C)cc1 [Example 1220]
250 to 1000	–	C=C(C)C(=O)Nc1ccc(-c2c(-c3cc(-c4ccccc4)cs3)c3c(N)ncnc3n2C)cc1 [Example 1221]
1000 to 100000	–	C=C(C)C(=O)Nc1ccc(-c2c(C3=CCC(c4nc(C)no4)CC3)c3c(N)ncnc3n2C)cc1 (stereo not drawn) [Example 1222]
1000 to 100000	–	C=CC(=O)Nc1ccc(-c2c(-c3cc4ccccc4s3)c3c(C)ncnc3n2C)cc1 [Example 1223]
250 to 1000	–	C=C(C)C(=O)Nc1ccc(-c2c(-c3ccc(-c4coc(C)n4)cc3)c3c(N)ncnc3n2C)cc1 [Example 1224]
250 to 1000	–	C=CC(=O)Nc1ccc(-c2c(-c3ccc(Oc4ccccc4)cc3)c3c(C)ncnc3n2C)cc1 [Example 1225]
1000 to 100000	–	C=C(C)C(=O)Nc1ccc(-c2c(-c3ccc(-n4cc(C(F)(F)F)cn4)cc3)c3c(N)ncnc3n2C)cc1 [Example 1226]
1000 to 100000	–	C=C(C)C(=O)Nc1ccc(-c2c(C3=CCC(c4ccccc4)CC3)c3c(N)ncnc3n2C)cc1 (stereo not drawn) [Example 1227]
1000 to 100000	–	C=C(C)C(=O)Nc1ccc(-c2c(-c3ccc(-c4nc(C)no4)cc3)c3c(N)ncnc3n2C)cc1 [Example 1244]
1000 to 100000	–	C=C(C)C(=O)Nc1ccc(-c2c(-c3sc4ccccc4c3C)c3c(N)ncnc3n2C)cc1 [Example 1247]
1000 to 100000	–	C=CC(=O)Nc1ccc(-c2c(-c3ccccc3)c3c(C)ncnc3n2C)cc1 [Example 1248]
1000 to 100000	–	C=CC(=O)Nc1ccc(-c2[nH]c3ncnc(C)c3c2-c2cc3ccccc3s2)cc1 [Example 1256]
1000 to 100000	–	C=C(C)C(=O)Nc1ccc(-c2c(-c3ccc(-c4noc(C5CC5)n4)c([N+](=O)[O-])c3)c3c(N)ncnc3n2C)cc1 [Example 1317]
1000 to 100000	–	C=C(C)C(=O)Nc1ccc(-c2c(-c3ccc(-c4noc(C5CC5)n4)c(N)c3)c3c(N)ncnc3n2C)cc1 [Example 1318]
100 to 250	–	C=C(F)C(=O)Nc1ccc(-c2c(-c3ccc(-c4noc(C5CC5)n4)cc3)c3c(N)ncnc3n2C)cc1 [Example 1326]
